From patent US6656925B2, “Composition and method of treating arthritis” (Advanced Medical Instruments, priority 1998, dated 2003)

What was measured:
[1] = absorbed by the gastrointestinal tract, significant first-pass metabolism in the liver; cited from earlier work
osteoarthritis symptoms = conditions: cited from earlier work
weakness of hind legs = assay: Case report: 12 year old Weimaraner with weakness of hind legs (Example 3); assay type: in vivo, dog (Weimaraner); conditions: prednisone 20 mg per day
Procedure: A 12 year old Weimaraner developed weakness of his hind legs which limited his ability to jump and lift his leg to urinate. […] He was then started on the new composition, of the invention, comprising zinc acetate 20 mg and glucosamine sulfate 500 mg coated with polyvinylpirrolidone 7 mg taken twice a day. […] He was then maintained on glucosamine sulfate 500 mg and zinc acetate 10 mg, twice a day for 11 months until his death.

[2] = most common adverse effect of zinc therapy; cited from earlier work

For `N[C@H]1C(O)O[C@H](CO)[C@@H](O)[C@@H]1O` (some centres unmarked) [Glucosamine], the bioavailibility [1] is listed as 26%.

For `N[C@H]1C(O)O[C@H](CO)[C@@H](O)[C@@H]1O.O=S(=O)(O)O` (some centres unmarked) [glucosamine sulfate], the “persistence of clinical improvement after discontinuation” value (osteoarthritis symptoms; after discontinuation) is given as “up to four weeks” and the “onset of clinical improvement of symptoms” value (osteoarthritis symptoms; after oral administration) is given as “as early as one week”.

In the case of `C[C@]12C=CC(=O)C=C1CC[C@@H]1[C@@H]2C(=O)C[C@@]2(C)[C@H]1CC[C@]2(O)C(=O)CO` [prednisone], the “response of hind leg weakness” value (weakness of hind legs) is reported as “limited success”.

For `[Zn]` [zinc], the “gastrointestinal irritation, share of patients” value [2] is listed as “approximately 10 % of patients”.
